Patent publication US20260209193A1, “NOVEL INHIBITORS OF DNA DAMAGE RESPONSES FOR CANCER THERAPY” (The Regents of the University of California, priority 2022, published 2026)

Target: T1, PARP1 (Homo sapiens, UniProt P09874)
T1 construct: endogenous in cells; host or cells: PC3
Test: PARP1 trapping, chromatin fractionation (chromatin-bound fraction)
Format: cell-based
Details: PC3 cells
Excerpt: The trapped PARP1 forms a toxic lesion and stalls the progress of replication forks. The replication fork collapses in BRCA1/2-deficient cancer cells, and then results in cell death. […] Six cancer cell lines were used in this assay, including two breast cancer cell lines, BRCA1-mutunt SUM149PT-BRCA1mut and SUM149PT-BRCA1rev where deleterious BRCA1 mutation is reverted to form a functional BRCA1, two ovarian cancer cell lines, BRCA1-null UWB1.289 and UWB1.289+BRCA1, a stable cell line in which wild-type BRCA1 function has been restored, and two prostate cancer cell lines, enzalutamide resistant C4-2B/MR which is homologous recombination (HR)-deficient due to Rad51 mutation, and enzalutamide insensitive PC3 which is HR-proficient.

T1 sequence (P09874 whole entry, species assumed): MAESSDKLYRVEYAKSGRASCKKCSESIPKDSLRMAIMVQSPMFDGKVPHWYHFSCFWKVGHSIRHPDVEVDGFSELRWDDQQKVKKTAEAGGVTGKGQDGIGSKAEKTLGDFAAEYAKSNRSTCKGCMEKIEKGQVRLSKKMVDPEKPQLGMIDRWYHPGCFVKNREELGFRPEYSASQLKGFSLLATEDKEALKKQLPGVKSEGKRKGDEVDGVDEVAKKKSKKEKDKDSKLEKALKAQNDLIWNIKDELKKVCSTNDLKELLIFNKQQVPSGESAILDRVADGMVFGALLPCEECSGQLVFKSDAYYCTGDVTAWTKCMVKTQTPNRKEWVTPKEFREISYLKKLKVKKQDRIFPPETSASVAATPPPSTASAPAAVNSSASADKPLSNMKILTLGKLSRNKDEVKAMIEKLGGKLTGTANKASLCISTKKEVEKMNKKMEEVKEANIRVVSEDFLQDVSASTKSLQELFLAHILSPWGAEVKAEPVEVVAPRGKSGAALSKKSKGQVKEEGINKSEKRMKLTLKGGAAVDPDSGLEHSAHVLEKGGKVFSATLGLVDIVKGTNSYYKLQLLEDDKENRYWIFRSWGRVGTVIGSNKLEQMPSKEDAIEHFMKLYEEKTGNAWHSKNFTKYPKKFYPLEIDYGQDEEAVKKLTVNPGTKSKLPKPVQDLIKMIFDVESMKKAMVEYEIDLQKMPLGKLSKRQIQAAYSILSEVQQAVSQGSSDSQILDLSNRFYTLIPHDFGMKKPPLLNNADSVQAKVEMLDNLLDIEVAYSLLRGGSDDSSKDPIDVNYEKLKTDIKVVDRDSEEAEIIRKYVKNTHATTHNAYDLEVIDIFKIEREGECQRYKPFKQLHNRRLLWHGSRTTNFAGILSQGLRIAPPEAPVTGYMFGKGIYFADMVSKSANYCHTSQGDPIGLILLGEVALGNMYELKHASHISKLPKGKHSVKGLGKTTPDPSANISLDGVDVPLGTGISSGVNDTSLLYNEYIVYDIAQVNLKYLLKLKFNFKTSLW

## 3-amino-N-(3,5-bis((E)-3,4-difluorobenzylidene)-4-oxocyclohexyl)-5-(4-(isopropylsulfonyl)phenyl)pyrazine-2-carboxamide [JCS089]
  PARP1-trapping potency relative to JC099 (PARP1 in the chromatin-bound fraction): their potencies were less than JC099

## CCOCCOc1ccc(C(=O)NC2C/C(=C\c3ccc(F)c(F)c3)C(=O)/C(=C/c3ccc(F)c(F)c3)C2)cc1 (stereo not drawn) [JCS010, N-(3,5-Bis((E)-3,4-difluorobenzylidene)-4-oxocyclohexyl)-4-(2-ethoxyethoxy)benzamide]
0.5 μM and 2 μM
  PARP1 trapped on DNA lesions: trapped

## CCCN(CCC)CCOc1ccc(C(=O)NC2C/C(=C\c3ccc(F)c(F)c3)C(=O)/C(=C/c3ccc(F)c(F)c3)C2)cc1 (stereo not drawn) [JCS011, N-(3,5-Bis((E)-3,4-difluorobenzylidene)-4-oxocyclohexyl)-4-(2-(dipropylamino)ethoxy)benzamide]
0.5 μM and 2 μM
  PARP1 trapped on DNA lesions: trapped
  PARP1-trapping potency relative to JC099 (PARP1 in the chromatin-bound fraction): higher potency in PARP1-trapping

## CC(C)N(CCOc1ccc(C(=O)NC2C/C(=C\c3ccc(F)c(F)c3)C(=O)/C(=C/c3ccc(F)c(F)c3)C2)cc1)C(C)C (stereo not drawn) [JCS013, N-(3,5-Bis((E)-3,4-difluorobenzylidene)-4-oxocyclohexyl)-4-(2-(diisopropylamino)ethoxy)benzamide]
0.5 μM and 2 μM
  PARP1 trapped on DNA lesions: trapped
  PARP1-trapping potency relative to JC099 (PARP1 in the chromatin-bound fraction): higher potency in PARP1-trapping

## O=C1/C(=C/c2ccc(F)c(F)c2)CC(NC(=O)c2ccc(OCCN3CCCCC3)cc2)C/C1=C\c1ccc(F)c(F)c1 (stereo not drawn) [JCS16]
0.5 μM
  PARP1 trapped on DNA lesions: trapped

## CCCCCN(CCCCC)CCOc1ccc(C(=O)NC2C/C(=C\c3ccc(F)c(F)c3)C(=O)/C(=C/c3ccc(F)c(F)c3)C2)cc1 (stereo not drawn) [JCS023, N-(3,5-Bis((E)-3,4-difluorobenzylidene)-4-oxocyclohexyl)-4-(2-(dipentylamino)ethoxy)benzamide]
0.5 μM and 2 μM
  PARP1 trapped on DNA lesions: trapped
0.5 μM
  PARP1 trapped on DNA lesions: trapped

## O=C1/C(=C/c2ccc(F)c(F)c2)CC(NC(=O)c2ccc(NCCN3CCCCC3)cc2)C/C1=C\c1ccc(F)c(F)c1 (stereo not drawn) [JCS028, N-(3,5-Bis((E)-3,4-difluorobenzylidene)-4-oxocyclohexyl)-4-((2-(piperidin-1-yl)ethyl)amino)-benzamide]
0.5 μM and 2 μM
  PARP1 trapped on DNA lesions: trapped
0.5 μM
  PARP1 trapped on DNA lesions: trapped

## COCCCNCCOc1ccc(C(=O)NC2C/C(=C\c3ccc(F)c(F)c3)C(=O)/C(=C/c3ccc(F)c(F)c3)C2)cc1 (stereo not drawn) [JCS030, N-(3,5-Bis((E)-3,4-difluorobenzylidene)-4-oxocyclohexyl)-4-(2-((3-methoxypropyl)amino)ethoxy)-benzamide]
0.5 μM
  PARP1 trapped on DNA lesions: trapped

## COCCNCCOc1ccc(C(=O)NC2C/C(=C\c3ccc(F)c(F)c3)C(=O)/C(=C/c3ccc(F)c(F)c3)C2)cc1 (stereo not drawn) [JCS031, N-(3,5-Bis((E)-3,4-difluorobenzylidene)-4-oxocyclohexyl)-4-(2-((2-methoxyethyl)amino)ethoxy)-benzamide]
0.5 μM
  PARP1 trapped on DNA lesions: trapped

## CCCCNCCOc1ccc(C(=O)NC2C/C(=C\c3ccc(F)c(F)c3)C(=O)/C(=C/c3ccc(F)c(F)c3)C2)cc1 (stereo not drawn) [JCS034, N-(3,5-Bis((E)-3,4-difluorobenzylidene)-4-oxocyclohexyl)-4-(2-(butylamino)ethoxy)benzamide]
0.5 μM
  PARP1 trapped on DNA lesions: trapped
  PARP1-trapping potency relative to JC099 (PARP1 in the chromatin-bound fraction): higher potency in PARP1-trapping

## NCCOc1ccc(C(=O)NC2C/C(=C\c3ccc(F)c(F)c3)C(=O)/C(=C/c3ccc(F)c(F)c3)C2)cc1 (stereo not drawn) [JCS036]
0.5 μM
  PARP1 trapped on DNA lesions: trapped

## C=CCN(CC=C)CCOc1ccc(C(=O)NC2C/C(=C\c3ccc(F)c(F)c3)C(=O)/C(=C/c3ccc(F)c(F)c3)C2)cc1 (stereo not drawn) [JCS037, N-(3,5-Bis((E)-3,4-difluorobenzylidene)-4-oxocyclohexyl)-4-(2-(diallylamino)ethoxy)benzamide]
0.5 μM
  PARP1 trapped on DNA lesions: trapped

## CN1CCN(CCOc2ccc(C(=O)NC3C/C(=C\c4ccc(F)c(F)c4)C(=O)/C(=C/c4ccc(F)c(F)c4)C3)cc2)CC1 (stereo not drawn) [JCS038, N-(3,5-Bis((E)-3,4-difluorobenzylidene)-4-oxocyclohexyl)-4-(2-(4-methylpiperazin-1-yl)ethoxy)benz-amide]
0.3 μM
  PARP1 trapped on DNA lesions: trapped

## O=C1/C(=C/c2ccc(F)c(F)c2)CC(NC(=O)c2ccc(NCCN3CCOCC3)cc2)C/C1=C\c1ccc(F)c(F)c1 (stereo not drawn) [JCS042, N-(3,5-Bis((E)-3,4-difluorobenzylidene)-4-oxocyclohexyl)-4-((2-morpholinoethyl)amino)benzamide]
0.3 μM
  PARP1 trapped on DNA lesions: trapped

## O=C1/C(=C/c2ccc(F)c(F)c2)CC(NC(=O)c2ccc(NCCCN3CCCC3)cc2)C/C1=C\c1ccc(F)c(F)c1 (stereo not drawn) [JCS044, N-(3,5-Bis((E)-3,4-difluorobenzylidene)-4-oxocyclohexyl)-4-((3-(pyrrolidin-1-yl)propyl)amino)benz-amide]
0.3 μM
  PARP1 trapped on DNA lesions: trapped

## O=C(CN1CCOCC1)Nc1ccc(C(=O)NC2C/C(=C\c3ccc(F)c(F)c3)C(=O)/C(=C/c3ccc(F)c(F)c3)C2)cc1 (stereo not drawn) [JCS047, N-(3,5-bis((E)-3,4-difluorobenzylidene)-4-oxocyclohexyl)-4-(2-morpholinoacetamido)benzamide]
0.3 μM
  PARP1 trapped on DNA lesions: trapped

## O=C(CN1CCCC1=O)Nc1ccc(C(=O)NC2C/C(=C\c3ccc(F)c(F)c3)C(=O)/C(=C/c3ccc(F)c(F)c3)C2)cc1 (stereo not drawn) [JCS048, N-(3,5-bis((E)-3,4-difluorobenzylidene)-4-oxocyclohexyl)-4-(2-(2-oxopyrrolidin-1-yl)acetamido)benzamide]
0.3 μM
  PARP1 trapped on DNA lesions: trapped
  PARP1-trapping potency relative to JC099 (PARP1 in the chromatin-bound fraction): higher potency in PARP1-trapping

## O=C1/C(=C/c2ccc(F)c(F)c2)CC(NC(=O)c2ccc(NC(=O)N3CCCCC3)cc2)C/C1=C\c1ccc(F)c(F)c1 (stereo not drawn) [JCS053, N-(4-((3,5-bis((E)-3,4-difluorobenzylidene)-4-oxocyclohexyl)carbamoyl)phenyl)piperidine-1-carboxamide]
0.3 μM
  PARP1 trapped on DNA lesions: trapped
  PARP1-trapping potency relative to JC099 (PARP1 in the chromatin-bound fraction): higher potency in PARP1-trapping

## O=C1/C(=C/c2ccc(F)c(F)c2)CC(NC(=O)c2ccc(NC(=O)N3CCCC3)cc2)C/C1=C\c1ccc(F)c(F)c1 (stereo not drawn) [JCS054, N-(4-((3,5-bis((E)-3,4-difluorobenzylidene)-4-oxocyclohexyl)carbamoyl)phenyl)pyrrolidine-1-carboxamide]
0.3 μM
  PARP1 trapped on DNA lesions: trapped
  PARP1-trapping potency relative to JC099 (PARP1 in the chromatin-bound fraction): higher potency in PARP1-trapping

## O=C1/C(=C/c2ccc(F)c(F)c2)CC(NC(=O)c2ccc(NC(=O)N3CCN(C(=O)C4CC4)CC3)cc2)C/C1=C\c1ccc(F)c(F)c1 (stereo not drawn) [JCS057, N-(4-((3,5-bis((E)-3,4-difluorobenzylidene)-4-oxocyclohexyl)carbamoyl)phenyl)-4-(cyclopropanecarbonyl)piperazine-1-carboxamide]
0.3 μM
  PARP1 trapped on DNA lesions: trapped

## CCCN(CCC)CCNc1ccc(C(=O)NC2C/C(=C\c3ccc(F)c(F)c3)C(=O)/C(=C/c3ccc(F)c(F)c3)C2)cc1 (stereo not drawn) [JCS065, N-(3,5-Bis((E)-3,4-difluorobenzylidene)-4-oxocyclohexyl)-4-((2-(dipropylamino)ethyl)amino)benz-amide]
  PARP1-trapping potency relative to JC099 (PARP1 in the chromatin-bound fraction): higher potency in PARP1-trapping

## CCN(CC)CCNc1ccc(C(=O)NC2C/C(=C\c3ccc(F)c(F)c3)C(=O)/C(=C/c3ccc(F)c(F)c3)C2)cc1 (stereo not drawn) [JCS070, N-(3,5-Bis((E)-3,4-difluorobenzylidene)-4-oxocyclohexyl)-4-((2-(diethylamino)ethyl)amino)benz-amide]
  PARP1-trapping potency relative to JC099 (PARP1 in the chromatin-bound fraction): higher potency in PARP1-trapping

## CCN(CC)CCOc1ccc(C(=O)NC2CC(Cc3ccc(F)c(F)c3)C(=O)C(Cc3ccc(F)c(F)c3)C2)cc1 (stereo not drawn) [JCS074, N-(3,5-bis(3,4-difluorobenzyl)-4-oxocyclohexyl)-4-(2-(diethylamino)ethoxy)benzamide]
  PARP1-trapping potency relative to JC099 (PARP1 in the chromatin-bound fraction): increased the accumulation of PARP1 in the chromatin-bound fraction than JC099

## O=C1/C(=C/c2ccc(F)c(F)c2)CC(NC(=O)c2ccc(OCCN3CCC(C(F)(F)F)CC3)cc2)C/C1=C\c1ccc(F)c(F)c1 (stereo not drawn) [JCS077, N-(3,5-bis((E)-3,4-difluorobenzylidene)-4-oxocyclohexyl)-4-(2-(4-(trifluoromethyl)piperidin-1-yl)ethoxy)benzamide]
  PARP1-trapping potency relative to JC099 (PARP1 in the chromatin-bound fraction): increased the accumulation of PARP1 in the chromatin-bound fraction than JC099

## CCc1ccc2c(c1)CCC1(CCN(CCOc3ccc(C(=O)NC4C/C(=C\c5ccc(F)c(F)c5)C(=O)/C(=C/c5ccc(F)c(F)c5)C4)cc3)CC1)O2 (stereo not drawn) [JCS078, N-(3,5-bis((E)-3,4-difluorobenzylidene)-4-oxocyclohexyl)-4-(2-(6-ethylspiro[chromane-2,4′-piperidin]-1′-yl)ethoxy)benzamide]
  PARP1-trapping potency relative to JC099 (PARP1 in the chromatin-bound fraction): increased the accumulation of PARP1 in the chromatin-bound fraction than JC099

## Cc1nn(C)c2ncc(C(=O)NC3C/C(=C\c4ccc(F)c(F)c4)C(=O)/C(=C/c4ccc(F)c(F)c4)C3)c(Cl)c12 (stereo not drawn) [JCS085]
  PARP1-trapping potency relative to JC099 (PARP1 in the chromatin-bound fraction): higher potency in PARP1-trapping

## O=C1/C(=C/c2ccc(F)c(F)c2)CC(NC(=O)c2ccc(NCCN3CCN(Cc4ccccc4)CC3)cc2)C/C1=C\c1ccc(F)c(F)c1 (stereo not drawn) [JCS087, 4-((2-(4-benzylpiperazin-1-yl)ethyl)amino)-N-(3,5-bis((E)-3,4-difluorobenzylidene)-4-oxocyclohexyl)benzamide]
  PARP1-trapping potency relative to JC099 (PARP1 in the chromatin-bound fraction): higher potency in PARP1-trapping

## CCN(CC)CCOc1cccc(C(=O)NC2C/C(=C\c3ccc(F)c(F)c3)C(=O)/C(=C/c3ccc(F)c(F)c3)C2)c1 (stereo not drawn) [JCS099, N-(3,5-Bis((E)-3,4-difluorobenzylidene)-4-oxocyclohexyl)-3-(2-(diethylamino)ethoxy)benzamide]
  PARP1-trapping potency relative to JC099 (PARP1 in the chromatin-bound fraction): higher potency in PARP1-trapping
